# In US5888993A, “Vanadium compounds in the treatment of elevated blood sugar levels” (The University of British Columbia, priority 1997, dated 1999):
# “And” between values parts separate entries of the source, which are not always exact repeats. Identical values can stand only once.
# What was measured:
# diabetic rats [1] = assay: Comparison of BMOV and vanadyl kojate, acute time course of plasma glucose, rats made diabetic with STZ; format: in vivo, rat; set-up: plasma glucose level: unit not given here
# Protocol: Using BMOV and Vanadyl Kojate as prepared in Examples 1 and 2 above, the relative efficacy of the two compounds was assessed using rats made diabetic with STZ. Again the animals were divided into responder and non-responder groups. For a 0.063 mmol V/kg ip injection, BMOV gave a 50:50 split between responder and non-responder groups whereas for vanadyl kojate the ratio was 60:40. On oral gavage of 0.55 mmol V/kg the responder:non-responder ratios were 50:50 and 57:43 respectively (n=10). However over a 12 day test period, there was a 100% response in terms of blood glucose reduction for diabetic rats receiving vanadyl kojate orally.
# STZ-diabetic rats = assay: Comparison of BMOV and ETHYLBMOV, plasma glucose and insulin in STZ-diabetic rats; format: in vivo, rat; conditions: 0.6 mmol kg^-1, one oral gavage, 24 hour period
# Protocol: Animal studies were conducted in STZ-diabetic rats comparing doses of 0.6 mmol kg^-1 for VO(ma)2 (BMOV) and VO(ema)2 (ETHYLVMOV). FIGS. 8 and 9 respectively show plasma glucose and plasma insulin values recorded over 24 hour periods after one oral gavage of a water solution of either BMOV or ETHYLBMOV, in order to compare their efficacies.
# diabetic rats [2] = assay: Comparative testing, plasma glucose after oral gavage in STZ diabetic rats; format: in vivo, male wistar rats; conditions: oral gavage 1 mmol/kg
# Protocol: Diabetes was induced in all animals by a single intravenous injection of streptozotocin (STZ) 60 mg/kg in 0.9% NaCl via the tail vein. Three days after STZ injection, blood was collected from the tail by nicking the tail tip and expressing the blood into heparinized capillary tubes. Blood was centrifuged at 20,000 g for 10 minutes to separate the plasma. Glucose analysis was done immediately on the plasma sample using a Boehringer Mannheim kit. […] One week after STZ injection animals were randomly divided into 3 pairs of rats. Each pair of rats received by oral gavage 1 mmol/kg of BMOV or VO(Sal)2 or VO(acac)2, suspended in 3% acacia.
smiles,measurement,setting,value
"Cc1occc(=O)c1[O-].Cc1occc(=O)c1[O-].[O]=[V+2] [BMOV, Bis(maltolato)oxovanadium(IV)]",plasma glucose level,"diabetic rats [1]; i.p. 0.063 mmol/kg, nonresponders (DTN), 0 h",19.42
same,plasma glucose level,"diabetic rats [1]; i.p. 0.063 mmol/kg, nonresponders (DTN), 1 h",18.82
same,plasma glucose level,"diabetic rats [1]; i.p. 0.063 mmol/kg, nonresponders (DTN), 2 h",18.51
same,plasma glucose level,"diabetic rats [1]; i.p. 0.063 mmol/kg, nonresponders (DTN), 4 h",17.94
same,plasma glucose level,"diabetic rats [1]; i.p. 0.063 mmol/kg, nonresponders (DTN), 6 h",18.08
same,plasma glucose level,"diabetic rats [1]; i.p. 0.063 mmol/kg, nonresponders (DTN), 8 h",17.77
same,plasma glucose level,"diabetic rats [1]; i.p. 0.063 mmol/kg, nonresponders (DTN), 12 h",19.07
same,plasma glucose level,"diabetic rats [1]; i.p. 0.063 mmol/kg, nonresponders (DTN), 24 h",19.01
same,plasma glucose level,"diabetic rats [1]; i.p. 0.063 mmol/kg, responders (DTR), 0 h",17.51
same,plasma glucose level,"diabetic rats [1]; i.p. 0.063 mmol/kg, responders (DTR), 1 h",14.77
same,plasma glucose level,"diabetic rats [1]; i.p. 0.063 mmol/kg, responders (DTR), 2 h",12.65
same,plasma glucose level,"diabetic rats [1]; i.p. 0.063 mmol/kg, responders (DTR), 4 h",10.6
same,plasma glucose level,"diabetic rats [1]; i.p. 0.063 mmol/kg, responders (DTR), 6 h",10.28
same,plasma glucose level,"diabetic rats [1]; i.p. 0.063 mmol/kg, responders (DTR), 8 h",9.08
same,plasma glucose level,"diabetic rats [1]; i.p. 0.063 mmol/kg, responders (DTR), 12 h",9.38
same,plasma glucose level,"diabetic rats [1]; i.p. 0.063 mmol/kg, responders (DTR), 24 h",7.15
same,plasma glucose level,"diabetic rats [1]; oral gavage 0.55 mmol/kg, nonresponders (DTN), 0 h",19.31
same,plasma glucose level,"diabetic rats [1]; oral gavage 0.55 mmol/kg, nonresponders (DTN), 1 h",18.05
same,plasma glucose level,"diabetic rats [1]; oral gavage 0.55 mmol/kg, nonresponders (DTN), 2 h",17.57
same,plasma glucose level,"diabetic rats [1]; oral gavage 0.55 mmol/kg, nonresponders (DTN), 4 h",16.92
same,plasma glucose level,"diabetic rats [1]; oral gavage 0.55 mmol/kg, nonresponders (DTN), 6 h",16.43
same,plasma glucose level,"diabetic rats [1]; oral gavage 0.55 mmol/kg, nonresponders (DTN), 8 h",15.02
same,plasma glucose level,"diabetic rats [1]; oral gavage 0.55 mmol/kg, nonresponders (DTN), 12 h",17.17
same,plasma glucose level,"diabetic rats [1]; oral gavage 0.55 mmol/kg, nonresponders (DTN), 24 h",18.07
same,plasma glucose level,"diabetic rats [1]; oral gavage 0.55 mmol/kg, responders (DTR), 0 h",18.09
same,plasma glucose level,"diabetic rats [1]; oral gavage 0.55 mmol/kg, responders (DTR), 1 h",14.55
same,plasma glucose level,"diabetic rats [1]; oral gavage 0.55 mmol/kg, responders (DTR), 2 h",13.13
same,plasma glucose level,"diabetic rats [1]; oral gavage 0.55 mmol/kg, responders (DTR), 4 h",11.68
same,plasma glucose level,"diabetic rats [1]; oral gavage 0.55 mmol/kg, responders (DTR), 6 h",9.47
same,plasma glucose level,"diabetic rats [1]; oral gavage 0.55 mmol/kg, responders (DTR), 8 h",9.27
same,plasma glucose level,"diabetic rats [1]; oral gavage 0.55 mmol/kg, responders (DTR), 12 h",7.01
same,plasma glucose level,"diabetic rats [1]; oral gavage 0.55 mmol/kg, responders (DTR), 24 h",6.31
same,"plasma glucose, difference BMOV vs ETHYLBMOV",STZ-diabetic rats,statistically insignificant
same,"plasma insulin, difference BMOV vs ETHYLBMOV",STZ-diabetic rats,statistically insignificant
same,blood glucose reducing effect vs compounds of Comparative Examples 15 and 16,diabetic rats [2],superior
same,plasma glucose level,"diabetic rats [2]; 0 h, individual rats (two per drug)",23.02 mM and 23.01 mM
same,plasma glucose level,"diabetic rats [2]; 2 h, individual rats",23.87 mM and 23.15 mM
same,plasma glucose level,"diabetic rats [2]; 4 h, individual rats",22.27 mM and 23.32 mM
same,plasma glucose level,"diabetic rats [2]; 6 h, individual rats",21.21 mM and 22.09 mM
same,plasma glucose level,"diabetic rats [2]; 8 h, individual rats",20.26 mM and 19.45 mM
same,plasma glucose level,"diabetic rats [2]; 12 h, individual rats",9.97 mM and 8.73 mM
same,plasma glucose level,"diabetic rats [2]; 24 h, individual rats",0.8 mM and 1.0 mM
